PMC9681820, “A PDE10A inhibitor CPL500036 is a novel agent modulating striatal function devoid of most neuroleptic side-effects” (Frontiers in Pharmacology, 2022)

Experiments:
PDE10A = PDE10A (Homo sapiens, UniProt Q9Y233); assay: LabChip microfluidic mobility-shift assay, IC50 against PDE10A; type: biochemical; details: eight concentrations 0.1 nM to 300 nM, duplicate
Method: IC50 determination was assessed using LabChip® microfluid technology (PerkinElmer, Hopkinton, MA, United States) in line with the service-provider’s protocol. CPL500036 was tested at eight concentrations ranging from 0.1 nM to 300 nM. The assay was run on the EZ Reader™ II platform (Caliper Life Sciences, Hopkinton, MA, United States). After the incubation period, levels of the reaction products and remaining substrate were measured. Analyzed data were from duplicate measurement, and IC50 was determined using a variable slope with Prism 5 (GraphPad, San Diego, CA, United States).

[1] = molecular target: T1, muscarinic acetylcholine receptor type 2 (Homo sapiens, UniProt P08172); assay: SafetyScreen44 radioligand binding (antagonistic radioligand assay); details: read-out: % Inh (% inhibition of control specific binding)
T1 construct: purchased Eurofins Cerep (SafetyScreen44)
Method: (§1) The SafetyScreen44® assay was carried out by Eurofins (Poitiers, France) according to the service-provider’s protocol. CPL500036 (1 µM) was tested against a panel of […] potential off-targets proteins, including G protein-coupled receptors (GPCRs), transporters, ion channels, nuclear receptors kinases and other non-kinase enzymes, by use of a set of the binding assays.
(§2) Binding of CPL500036 was calculated as the percent binding inhibition of a radioactively labeled ligand specific for each target. Enzyme inhibition of CPL500036 was calculated as the percent inhibition of the activity of the control enzyme. “No interaction” was denoted if inhibition ≤ 25% of specific binding of the control. Determination of muscarinic acetylcholine receptor (M2) activity induced by CPL500036 (antagonism and agonism) was undertaken in human recombinant CHO cells by measurement of the intracellular cAMP level according to the service-provider’s protocol. IC50 (concentration causing a half-maximal inhibition of specific binding of the control) or EC50 (concentration causing a half-maximal response of specific binding of the control) and the Hill coefficient were determined by non-linear regression analysis of the competition curves generated with mean replicate values using Hill-equation curve fitting with software developed at Cerep (Celle-Lévescault, France).

Acetylcholinesterase = molecular target: T2, Acetylcholinesterase (Homo sapiens, UniProt P22303); assay: SafetyScreen44 enzyme inhibition; type: biochemical; details: read-out: % Inh (percent inhibition of the activity of the control enzyme)
T2 construct: purchased Eurofins Cerep (SafetyScreen44)
Method: as §1, §2

Cyclooxygenase 1 = molecular target: T3, Cyclooxygenase 1 (Homo sapiens, UniProt P23219); assay: SafetyScreen44 enzyme inhibition; type: biochemical; details: read-out: % Inh (percent inhibition of the activity of the control enzyme)
T3 construct: purchased Eurofins Cerep (SafetyScreen44)
Method: as §1, §2

Cyclooxygenase 2 = molecular target: T4, Cyclooxygenase 2 (Homo sapiens, UniProt P35354); assay: SafetyScreen44 enzyme inhibition; type: biochemical; details: read-out: % Inh (percent inhibition of the activity of the control enzyme)
T4 construct: purchased Eurofins Cerep (SafetyScreen44)
Method: as §1, §2

[2] = molecular target: T5, lymphocyte-specific protein tyrosine kinase (Homo sapiens, UniProt P06239); assay: SafetyScreen44 enzyme inhibition; type: biochemical; details: read-out: % Inh (percent inhibition of the activity of the control enzyme)
T5 construct: purchased Eurofins Cerep (SafetyScreen44)
Method: as §1, §2

phosphodiesterase 3A = molecular target: T6, phosphodiesterase 3A (Homo sapiens, UniProt Q14432); assay: SafetyScreen44 enzyme inhibition; type: biochemical; details: read-out: % Inh (percent inhibition of the activity of the control enzyme)
T6 construct: purchased Eurofins Cerep (SafetyScreen44)
Method: as §1, §2

phosphodiesterase 4 = molecular target: T7, phosphodiesterase 4 (Homo sapiens, UniProt Q08499); assay: SafetyScreen44 enzyme inhibition; type: biochemical; details: read-out: % Inh (percent inhibition of the activity of the control enzyme)
T7 construct: purchased Eurofins Cerep (SafetyScreen44)
Method: as §1, §2

[3] = tested on: cardiac 3D spheroids (cardiomyocytes and fibroblasts derived from human pluripotent cells); assay: Cardiotoxicity in spontaneously beating cardiac 3D spheroids; type: cell-based
Method: The cardiotoxic effect of CPL500036 was evaluated in spontaneously beating cardiac 3D spheroids (comprising cardiomyocytes and fibroblasts derived from human pluripotent cells) by Cyprotex (Cheshire, United Kingdom). Experiments were carried out in accordance with the service-provider’s protocol. Specific parameters of cell health were assessed: number and size of spheroids, DNA structure, intracellular level of calcium ions, mitochondrial mass, membrane potential and cellular ATP. […] During the 14 days of the experiment, redosing occurred on three occasions. Spheroid hypertrophy was measured on days 3, 7, 10, and 14 using the “brightfield live cellular imaging” mode of a Cellomics ArrayScan® XTI system (Thermo Scientific, Waltham, MA, United States). On day-14, the spheroid model was analyzed using the confocal mode of Cellomics ArrayScan XTI following incorporation of appropriate fluorescent dyes. Subsequently, cellular ATP content was measured using CellTiterGlo® (Promega, Fitchburg, WI, United States). Mitomicyn C and dasatinib were used as positive controls (Supplementary Table S1).
concentration at which 50% maximum effect is observed for each cell health parameter; NR - No response observed.

[4] = tested on: Salmonella typhimurium TA98; assay: Ames test; details: CPL500036 5000µg/plate, n=3
[5] = Plasma protein binding (equilibrium dialysis); type: in vitro ADME, rats
Method: The plasma protein binding study was carried out by Eurofins (Poitiers, France) according to the service-provider’s protocol. Briefly, the protein matrix was spiked with the test compound at 10 μM (n = 2) with a final DMSO concentration of 1%. The dialysate compartment was loaded with phosphate buffered saline (PBS, pH 7.4) and the sample side was loaded with equal volume of the spiked protein matrix. The dialysis plate was incubated at 37°C for 4 h. After the incubation, samples were taken from each compartment, diluted with the phosphate buffer followed by addition of acetonitrile and centrifugation. The supernatants were then used for HPLC-MS/MS analysis. Acebutolol, quinidine, and warfarin were tested as reference.

Sprague–Dawley rats = assay: Catalepsy bar test; type: in vivo; details: p.o.
Method: Sprague–Dawley rats (∼300 g; Charles River Laboratories, Wilmington, MA, United States) (n = 8–12/group) were treated (p.o.) with vehicle or CPL500036 (0.15 mg/kg, 0.3 mg/kg, 0.6 mg/kg or 2 mg/kg). As a positive control causing catalepsy, haloperidol (1 mg/kg, i.p.) was employed. One hour following drug administration, catalepsy (prolonged maintenance of an externally imposed abnormal posture) was assessed using the bar test as described by Ionova and Severtsev ([Ionov and Severtsev, 2012]). Testing was accomplished by placing each rat in an upright position with his forepaws resting on a horizontal bar (0.9 cm in diameter) suspended in a wooden frame 7.5 cm above the cage floor. The rat was allowed to keep his forepaws on the bar for a measurement lasting for 30 s. The latency to remove both forepaws from the bar was measured with a hand-held stopwatch. The test was repeated for each rat every 30 min up to 240 min. Rats were returned to their home cages between tests. Each rat was tested twice, at an interval of 1 week.

[6] = Hepatocyte stability assay; type: in vitro ADME; details: data not shown, n = 6
[7] = With metabolic activation (+S9 mix), 2AA 2µg/plate
[8] = Without metabolic activation (-S9 mix), NPD 4µg/plate

T1 sequence (P08172 whole entry): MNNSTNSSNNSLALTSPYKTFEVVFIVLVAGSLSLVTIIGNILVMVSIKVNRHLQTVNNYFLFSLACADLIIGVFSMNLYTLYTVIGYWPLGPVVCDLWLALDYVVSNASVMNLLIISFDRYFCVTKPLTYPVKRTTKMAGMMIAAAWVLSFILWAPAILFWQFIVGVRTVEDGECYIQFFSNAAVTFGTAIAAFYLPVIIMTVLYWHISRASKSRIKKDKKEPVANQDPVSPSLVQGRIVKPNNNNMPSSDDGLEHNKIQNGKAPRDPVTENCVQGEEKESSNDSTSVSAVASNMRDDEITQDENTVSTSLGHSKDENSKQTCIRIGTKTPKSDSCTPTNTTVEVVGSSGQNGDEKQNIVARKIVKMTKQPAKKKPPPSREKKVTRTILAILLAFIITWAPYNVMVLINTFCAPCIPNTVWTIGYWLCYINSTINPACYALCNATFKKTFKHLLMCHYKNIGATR
T4 sequence (P35354 18-604): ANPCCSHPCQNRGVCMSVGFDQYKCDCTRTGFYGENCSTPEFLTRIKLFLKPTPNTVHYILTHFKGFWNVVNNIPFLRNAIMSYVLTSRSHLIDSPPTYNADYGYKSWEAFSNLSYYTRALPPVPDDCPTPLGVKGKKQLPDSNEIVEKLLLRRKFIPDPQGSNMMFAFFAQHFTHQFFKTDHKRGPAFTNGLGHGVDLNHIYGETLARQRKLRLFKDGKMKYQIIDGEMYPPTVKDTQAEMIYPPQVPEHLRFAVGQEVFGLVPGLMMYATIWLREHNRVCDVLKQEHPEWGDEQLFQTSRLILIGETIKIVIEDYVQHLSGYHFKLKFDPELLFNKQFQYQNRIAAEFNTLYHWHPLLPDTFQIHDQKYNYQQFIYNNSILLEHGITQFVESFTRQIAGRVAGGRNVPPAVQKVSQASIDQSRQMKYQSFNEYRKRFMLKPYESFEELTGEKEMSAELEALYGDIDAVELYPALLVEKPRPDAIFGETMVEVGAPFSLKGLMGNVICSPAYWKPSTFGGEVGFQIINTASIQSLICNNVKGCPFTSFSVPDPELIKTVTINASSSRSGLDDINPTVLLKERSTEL
PDE10A, sequence (Q9Y233 whole entry, species assumed): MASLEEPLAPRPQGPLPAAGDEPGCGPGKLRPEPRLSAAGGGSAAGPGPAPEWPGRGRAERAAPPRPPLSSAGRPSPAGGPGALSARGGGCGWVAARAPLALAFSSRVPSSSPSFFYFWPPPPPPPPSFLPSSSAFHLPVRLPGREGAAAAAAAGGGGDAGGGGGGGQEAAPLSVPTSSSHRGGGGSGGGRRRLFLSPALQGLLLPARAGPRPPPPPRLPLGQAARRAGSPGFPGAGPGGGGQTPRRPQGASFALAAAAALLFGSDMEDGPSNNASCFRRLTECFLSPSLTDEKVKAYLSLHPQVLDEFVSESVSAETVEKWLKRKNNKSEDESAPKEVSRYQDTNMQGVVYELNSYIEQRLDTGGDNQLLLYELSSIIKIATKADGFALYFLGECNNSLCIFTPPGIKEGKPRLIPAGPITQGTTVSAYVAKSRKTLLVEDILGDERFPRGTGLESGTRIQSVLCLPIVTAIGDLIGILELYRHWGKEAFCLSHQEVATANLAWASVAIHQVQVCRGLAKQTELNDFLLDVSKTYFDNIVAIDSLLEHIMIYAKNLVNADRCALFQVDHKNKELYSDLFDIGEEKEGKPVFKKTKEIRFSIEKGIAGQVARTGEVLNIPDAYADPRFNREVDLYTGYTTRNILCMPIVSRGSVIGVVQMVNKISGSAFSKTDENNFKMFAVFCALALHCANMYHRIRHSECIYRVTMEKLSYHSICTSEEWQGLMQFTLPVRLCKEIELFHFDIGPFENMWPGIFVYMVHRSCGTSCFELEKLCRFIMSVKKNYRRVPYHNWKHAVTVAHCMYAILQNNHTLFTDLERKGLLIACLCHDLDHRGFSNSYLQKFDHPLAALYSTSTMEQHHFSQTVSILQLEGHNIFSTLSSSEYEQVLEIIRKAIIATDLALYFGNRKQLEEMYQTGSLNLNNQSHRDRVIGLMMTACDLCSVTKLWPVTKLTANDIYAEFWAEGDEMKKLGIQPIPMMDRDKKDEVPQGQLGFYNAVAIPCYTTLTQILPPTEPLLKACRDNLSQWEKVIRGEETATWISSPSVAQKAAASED
T2 sequence (P22303 32-614): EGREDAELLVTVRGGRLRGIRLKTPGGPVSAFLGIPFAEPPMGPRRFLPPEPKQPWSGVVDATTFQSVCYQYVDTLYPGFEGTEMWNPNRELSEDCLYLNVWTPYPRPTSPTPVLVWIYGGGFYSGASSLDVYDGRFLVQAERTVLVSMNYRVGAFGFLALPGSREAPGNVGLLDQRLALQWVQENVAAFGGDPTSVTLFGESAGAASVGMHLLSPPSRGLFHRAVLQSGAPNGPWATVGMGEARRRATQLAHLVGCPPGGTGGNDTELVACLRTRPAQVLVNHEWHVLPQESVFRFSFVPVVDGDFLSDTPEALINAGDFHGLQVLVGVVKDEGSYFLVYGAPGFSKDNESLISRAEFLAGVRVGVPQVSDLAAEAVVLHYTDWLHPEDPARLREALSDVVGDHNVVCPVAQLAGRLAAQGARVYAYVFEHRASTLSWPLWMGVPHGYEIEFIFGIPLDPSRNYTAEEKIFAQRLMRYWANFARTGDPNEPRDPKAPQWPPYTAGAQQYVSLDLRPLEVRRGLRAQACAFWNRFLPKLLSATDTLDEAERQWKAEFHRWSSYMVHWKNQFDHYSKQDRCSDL
T6 sequence (Q14432 whole entry): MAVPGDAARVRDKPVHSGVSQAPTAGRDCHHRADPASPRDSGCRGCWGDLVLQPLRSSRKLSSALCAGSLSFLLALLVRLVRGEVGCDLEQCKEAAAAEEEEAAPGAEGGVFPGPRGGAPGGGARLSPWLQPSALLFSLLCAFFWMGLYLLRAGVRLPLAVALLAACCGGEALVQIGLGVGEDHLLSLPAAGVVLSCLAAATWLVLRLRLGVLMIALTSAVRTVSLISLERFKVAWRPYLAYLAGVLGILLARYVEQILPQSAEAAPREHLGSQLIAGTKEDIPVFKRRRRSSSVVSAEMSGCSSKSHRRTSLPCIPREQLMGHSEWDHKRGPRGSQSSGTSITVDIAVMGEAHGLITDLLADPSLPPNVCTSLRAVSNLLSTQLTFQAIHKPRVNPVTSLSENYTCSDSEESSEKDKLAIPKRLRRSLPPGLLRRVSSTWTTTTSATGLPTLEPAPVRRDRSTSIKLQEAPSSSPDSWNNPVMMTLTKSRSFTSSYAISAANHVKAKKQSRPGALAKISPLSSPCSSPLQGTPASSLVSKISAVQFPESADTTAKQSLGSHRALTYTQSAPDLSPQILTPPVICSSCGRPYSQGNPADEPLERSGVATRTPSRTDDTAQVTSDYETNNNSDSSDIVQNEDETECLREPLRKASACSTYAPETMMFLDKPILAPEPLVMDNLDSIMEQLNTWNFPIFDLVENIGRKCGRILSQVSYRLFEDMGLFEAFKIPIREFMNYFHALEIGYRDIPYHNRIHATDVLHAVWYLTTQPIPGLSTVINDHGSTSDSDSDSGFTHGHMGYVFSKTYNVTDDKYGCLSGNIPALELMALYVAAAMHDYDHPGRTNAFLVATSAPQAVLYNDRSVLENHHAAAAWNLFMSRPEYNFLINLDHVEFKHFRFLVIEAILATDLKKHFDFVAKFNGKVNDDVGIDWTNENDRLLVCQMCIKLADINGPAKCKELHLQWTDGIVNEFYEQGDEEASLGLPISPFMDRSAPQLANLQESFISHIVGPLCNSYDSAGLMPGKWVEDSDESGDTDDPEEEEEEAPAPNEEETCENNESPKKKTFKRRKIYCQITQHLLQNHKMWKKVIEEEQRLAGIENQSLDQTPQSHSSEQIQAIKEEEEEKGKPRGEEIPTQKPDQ
T3 sequence (P23219 24-599): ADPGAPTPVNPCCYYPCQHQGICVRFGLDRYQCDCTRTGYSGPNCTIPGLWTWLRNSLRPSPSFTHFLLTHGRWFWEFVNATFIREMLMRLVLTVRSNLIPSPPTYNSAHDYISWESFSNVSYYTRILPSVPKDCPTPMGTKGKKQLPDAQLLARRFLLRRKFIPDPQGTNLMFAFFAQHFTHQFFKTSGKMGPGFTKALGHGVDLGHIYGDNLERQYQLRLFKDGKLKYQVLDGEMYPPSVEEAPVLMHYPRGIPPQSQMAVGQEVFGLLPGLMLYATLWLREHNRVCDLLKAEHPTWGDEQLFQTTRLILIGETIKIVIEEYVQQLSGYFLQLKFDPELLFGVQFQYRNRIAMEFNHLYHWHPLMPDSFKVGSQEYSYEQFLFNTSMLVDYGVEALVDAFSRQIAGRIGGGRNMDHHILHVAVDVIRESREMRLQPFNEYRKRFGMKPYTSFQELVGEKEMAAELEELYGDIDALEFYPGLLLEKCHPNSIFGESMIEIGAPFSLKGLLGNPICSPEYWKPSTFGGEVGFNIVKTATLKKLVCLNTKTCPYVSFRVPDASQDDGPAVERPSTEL
T5 sequence (P06239 whole entry): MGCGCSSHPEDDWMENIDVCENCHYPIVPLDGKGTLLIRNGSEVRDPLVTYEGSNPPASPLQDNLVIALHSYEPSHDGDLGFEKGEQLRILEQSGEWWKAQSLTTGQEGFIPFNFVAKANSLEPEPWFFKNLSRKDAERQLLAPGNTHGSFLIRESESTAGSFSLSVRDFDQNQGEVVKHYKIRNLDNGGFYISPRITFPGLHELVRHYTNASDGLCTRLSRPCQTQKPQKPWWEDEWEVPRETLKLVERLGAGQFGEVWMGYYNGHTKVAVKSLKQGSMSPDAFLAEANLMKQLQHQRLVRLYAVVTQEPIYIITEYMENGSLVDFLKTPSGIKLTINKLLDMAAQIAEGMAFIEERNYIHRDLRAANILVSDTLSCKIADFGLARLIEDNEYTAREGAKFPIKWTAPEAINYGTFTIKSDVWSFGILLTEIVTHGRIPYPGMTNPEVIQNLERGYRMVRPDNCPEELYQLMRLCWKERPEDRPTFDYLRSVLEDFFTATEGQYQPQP

Work on `Cc1ncc(C)n2nc(-c3ccn4cc(-c5ccccc5)nc4n3)nc12` [CPL500036, 7-[5,8-Dimethyl-(1,2,4)triazolo (1,5-a)pyrazin-2-yl]-2-phenylimidazo (1,2-a) pyrimidine] yielded an IC50 (PDE10A) of 0.001 µM, an inhibition at 1 µM [1] of -91.2% and an inhibition at 1 µM (Acetylcholinesterase) of 13.7%. It also gave an inhibition at 1 µM (Cyclooxygenase 1) of -9.5%, an inhibition at 1 µM (Cyclooxygenase 2) of -0.4% and an inhibition at 1 µM [2] of -1.9%. The inhibition at 1 µM (phosphodiesterase 3A) was -15.2%, the inhibition at 1 µM (phosphodiesterase 4) was 0.8% and the “effect on the number or size of spheroids, intracellular calcium concentration, mitochondrial mass, membrane potential or intracellular ATP” value ([3]; 0.0457 μM–100 µM) was “no effect”. It also gave an IC50 ([3]; Homo sapiens, 3D cardiac spheroids, 0.0457 μM–100 µM, read-out: IC50, impaired DNA structure) of 37.4 µM, an AC50 ([3]; Homo sapiens, 3D cardiac spheroids, read-out: DNA structure AC50) of 37.4 µM and a Mutation rate [4, 7] of 0.92. The “Revertants Mean±SD” value [4, 7] was 18.3±8.02, the Mutation rate [4, 8] was 0.74 and the “Revertants Mean±SD” value [4, 8] was 14.3±1.15. For the same compound, the “free concentration of CPL500036 in rats” value ([5]; based on the plasma protein binding and pharmacokinetic data) was 5%, the fraction unbound at 4 h, 10 µM ([5]; rat, plasma, pH 7.4, rats, 10 μM, 37°C, 4 h, n = 2) was 0.08 and the “catalepsy, bar test” value (Sprague–Dawley rats; 0.15 mg/kg, 60 min–240 min after administration) was “did not induce catalepsy”. For the same compound, the “catalepsy, bar test” value (Sprague–Dawley rats; 0.3 mg/kg, appeared only at 210 min and 240 min) was “low cataleptogenic effect”, the “catalepsy, bar test” value (Sprague–Dawley rats; 0.6 mg/kg, 60 min–240 min after administration) was “apparent 120 min–240 min following administration, but did not achieve the level elicited by haloperidol” and the “catalepsy, bar test” value (Sprague–Dawley rats; 2 mg/kg, compared with haloperidol 1 mg/kg, i.p.) was “strong cataleptogenic effect comparable with that of haloperidol”. For the same compound, the “minimum effective dose (MED) needed to elicit catalepsy” value (Sprague–Dawley rats; from AUC data of the duration of catalepsy) was 0.6 mg/kg and the active metabolites [6] was “no active metabolites were identified”.
